Reference: ChEMBL document CHEMBL3098059, “Identification by in silico and in vitro screenings of small organic molecules acting as reversible inhibitors of kallikreins” (Eur J Med Chem, 2013)
pIC50, pKi: −log10 of the molar value. Calls of active or inactive are those of the source. No cut-off for these calls is given here.

How the values were obtained:
[1] = Cytotoxicity against human keratinocytes assessed as cell viability at 100 uM after 24 to 48 hrs by neutral red assay; assay type: cell-based; settings: keratinocyte
[2] = Cytotoxicity against human keratinocytes assessed as cell viability at 1 uM after 24 to 48 hrs by neutral red assay; assay type: cell-based; settings: keratinocyte
[3] = Cytotoxicity against human keratinocytes assessed as cell viability at 10 uM after 24 to 48 hrs by neutral red assay; assay type: cell-based, Keratinocyte; settings: keratinocyte, 10 µM
[4] = target: T1, Kallikrein-7 (Homo sapiens, UniProt P49862); experiment: Ratio of Ki for mixed-type inhibition of human kallikrein7 assessed as enzyme-substrate-inhibitor complex to Ki for mixed-type inhibition of human kallikrein7 assessed as enzyme-inhibitor complex
Target sequence in this assay (P49862 30-253 limits assumed): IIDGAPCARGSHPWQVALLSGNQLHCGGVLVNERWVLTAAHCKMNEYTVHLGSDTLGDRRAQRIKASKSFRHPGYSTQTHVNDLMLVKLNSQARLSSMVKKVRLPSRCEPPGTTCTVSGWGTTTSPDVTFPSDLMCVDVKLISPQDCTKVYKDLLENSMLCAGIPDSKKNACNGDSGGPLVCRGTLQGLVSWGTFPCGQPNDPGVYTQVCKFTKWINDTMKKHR

[5] = target: T1, Kallikrein-7; experiment: Mixed-type inhibition of human kallikrein7 using Suc-Leu-Leu-Val-Tyr-AMC as substrate assessed as enzyme-substrate-inhibitor complex after 15 to 60 mins by Lineweaver-Burk/Eadie-Hofstee plot analysis
Target sequence in this assay (P49862 whole entry): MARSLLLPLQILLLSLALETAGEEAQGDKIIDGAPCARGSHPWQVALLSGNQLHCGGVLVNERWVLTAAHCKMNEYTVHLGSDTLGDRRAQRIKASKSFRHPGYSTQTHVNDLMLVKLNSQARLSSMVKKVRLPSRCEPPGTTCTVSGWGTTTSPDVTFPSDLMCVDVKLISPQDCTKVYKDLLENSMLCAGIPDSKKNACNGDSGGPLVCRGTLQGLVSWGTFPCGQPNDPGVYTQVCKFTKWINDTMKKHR

[6] = target: T1, Kallikrein-7; experiment: Mixed-type inhibition of human kallikrein7 using Suc-Leu-Leu-Val-Tyr-AMC as substrate assessed as enzyme-inhibitor complex after 15 to 60 mins by Lineweaver-Burk/Eadie-Hofstee plot analysis
Target sequence in this assay (P49862 whole entry): as above

[7] = target: Kallikrein-5 (Homo sapiens) (UniProt Q9Y337); experiment: Competitive inhibition of human kallikrein5 using Boc-Val-Pro-Arg-AMC as substrate at 50 uM after 15 to 60 mins by Lineweaver-Burk/Eadie-Hofstee plot analysis
[8] = target: T2, Suppressor of tumorigenicity 14 protein (Homo sapiens) (UniProt Q9Y5Y6); experiment: Reversible inhibition of matriptase (unknown origin) using Boc-Gln-Ala-Arg-AMC as substrate after 15 to 60 mins by fluorescence assay
T2 sequence (whole entry): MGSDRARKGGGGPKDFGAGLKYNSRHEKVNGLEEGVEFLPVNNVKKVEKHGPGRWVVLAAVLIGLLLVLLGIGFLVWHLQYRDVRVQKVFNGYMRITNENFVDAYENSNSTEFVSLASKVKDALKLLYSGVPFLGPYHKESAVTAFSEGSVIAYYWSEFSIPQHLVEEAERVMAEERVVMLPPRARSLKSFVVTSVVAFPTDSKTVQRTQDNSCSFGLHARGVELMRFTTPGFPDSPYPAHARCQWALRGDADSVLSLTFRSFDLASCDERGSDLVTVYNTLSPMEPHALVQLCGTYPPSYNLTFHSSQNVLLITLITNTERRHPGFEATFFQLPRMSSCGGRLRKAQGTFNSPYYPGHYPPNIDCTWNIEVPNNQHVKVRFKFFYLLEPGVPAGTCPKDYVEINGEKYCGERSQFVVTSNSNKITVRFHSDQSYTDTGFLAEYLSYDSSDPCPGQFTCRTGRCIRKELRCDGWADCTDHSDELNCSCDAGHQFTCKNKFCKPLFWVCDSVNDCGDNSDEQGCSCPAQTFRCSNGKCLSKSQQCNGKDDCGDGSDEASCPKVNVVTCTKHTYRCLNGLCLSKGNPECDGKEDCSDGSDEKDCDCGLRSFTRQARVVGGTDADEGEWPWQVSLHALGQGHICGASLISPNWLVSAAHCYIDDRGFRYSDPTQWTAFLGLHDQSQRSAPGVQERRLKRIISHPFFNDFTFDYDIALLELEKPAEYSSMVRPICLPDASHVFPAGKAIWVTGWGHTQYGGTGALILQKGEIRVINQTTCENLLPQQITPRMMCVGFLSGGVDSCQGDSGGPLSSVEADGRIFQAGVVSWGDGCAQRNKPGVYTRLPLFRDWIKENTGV

[9] = target: T3, Kallikrein-14 (Homo sapiens) (UniProt Q9P0G3); experiment: Reversible inhibition of human kallikrein14 using Boc-Val-Pro-Arg-AMC as substrate after 15 to 60 mins by fluorescence assay
T3 sequence (whole entry): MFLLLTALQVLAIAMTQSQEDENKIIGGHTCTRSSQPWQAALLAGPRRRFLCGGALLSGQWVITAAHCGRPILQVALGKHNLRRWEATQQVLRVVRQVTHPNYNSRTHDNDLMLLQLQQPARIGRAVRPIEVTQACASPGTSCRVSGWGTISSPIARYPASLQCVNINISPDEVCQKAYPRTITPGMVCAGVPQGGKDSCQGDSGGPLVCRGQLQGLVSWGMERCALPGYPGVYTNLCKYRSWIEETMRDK

[10] = target: T1, Kallikrein-7; experiment: Reversible inhibition of human kallikrein7 using Suc-Leu-Leu-Val-Tyr-AMC as substrate after 15 to 60 mins by fluorescence assay
Target sequence in this assay (P49862 30-253 limits assumed): as the sequence (P49862 30-253 limits assumed) above

[11] = target: Kallikrein-5 (Homo sapiens) (UniProt Q9Y337); experiment: Reversible inhibition of human kallikrein5 using Boc-Val-Pro-Arg-AMC as substrate after 15 to 60 mins by fluorescence assay
[12] = target: T2, Suppressor of tumorigenicity 14 protein (Homo sapiens); experiment: Inhibition of matriptase (unknown origin) using Boc-Gln-Ala-Arg-AMC as substrate at 50 uM after 15 mins by fluorescence assay
[13] = target: T3, Kallikrein-14 (Homo sapiens); experiment: Inhibition of human kallikrein14 using Boc-Val-Pro-Arg-AMC as substrate at 50 uM after 15 mins by fluorescence assay
[14] = target: T1, Kallikrein-7; experiment: Inhibition of human kallikrein7 using Suc-Leu-Leu-Val-Tyr-AMC as substrate after 15 mins by fluorescence assay
Target sequence in this assay (P49862 whole entry): as the sequence (P49862 whole entry) above

[15] = target: Kallikrein-5 (Homo sapiens) (UniProt Q9Y337); experiment: Inhibition of human kallikrein5 using Boc-Val-Pro-Arg-AMC as substrate at 50 uM after 15 mins by fluorescence assay

Sequence of Kallikrein-5 (Homo sapiens) (Q9Y337 whole entry): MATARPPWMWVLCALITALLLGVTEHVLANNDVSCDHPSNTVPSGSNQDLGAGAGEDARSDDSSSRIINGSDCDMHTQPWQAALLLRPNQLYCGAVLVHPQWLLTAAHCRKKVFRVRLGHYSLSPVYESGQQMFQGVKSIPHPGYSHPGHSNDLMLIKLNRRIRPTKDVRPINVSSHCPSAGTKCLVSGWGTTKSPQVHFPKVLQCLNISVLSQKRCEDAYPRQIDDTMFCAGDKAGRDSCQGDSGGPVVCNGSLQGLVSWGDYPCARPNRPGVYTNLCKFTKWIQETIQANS

## Nc1ccc2[nH]c(SCc3nc4ccccc4c(=O)n3-c3cccc(C(F)(F)F)c3)nc2c1
[1]
  Activity: Non-toxic
[2]
  Activity: Non-toxic
[3]
  Activity: Non-toxic
[4]
  Ratio Ki: 2
[5]
  pKi: 4.36
[6]
  pKi: 4.82
[7]
  inhibition: < 30%
[8]
  inhibition: Active
[9]
  inhibition: Active
[10]
  inhibition: Active
[11]
  inhibition: Active
[12]
  inhibition: < 30%
[13]
  inhibition: < 30%
[14]
  pIC50: 4.60
[15]
  inhibition: < 30%
